Assay results as given in US11181534B2, “Routine laboratory and point-of-care (POC) testing for hemostasis” (Bloodworks, priority 2014, dated 2021).

Tests used:
[1] = test system: Factor VIII (FVIII); assay: FVIII Activity by manual one-stage assay in patient plasma; assay type: in vivo, human; settings: FVIII Case #3, 45 min after Stimate; baseline 18.9%
Protocol: (§1) Blood samples were collected by venipuncture in 3.2% sodium citrate anticoagulant. Platelet poor plasma was separated by centrifugation per clinical protocols, snap frozen, and stored at −80 C until tested. FVIII Antigen was measured by ELISA (FVIII-AG ELISA kit, Affinity Biologicals) per the manufacturer's instructions. FVIII Activity was measured by manual one-stage assay per the clinical protocol of the Bloodworks Northwest Hemostasis Reference Laboratory. The Koate DVI (Kedrion) coefficient (in vivo) was ascertained by measuring FVIII Antigen and FVIII Activity samples from patients undergoing clinically-indicated Koate DVI kinetic studies and calculating the Activity:Antigen ratio. Pooled normal plasma (Precision BioLogic), normal reference plasmas (Precision BioLogic, Siemens), abnormal reference plasma (Siemens), samples from healthy blood donors, and FVIII-deficient plasma (Affinity Biologicals, Siemens) were used in assays as standards and controls.

[2] = test system: Factor VIII (FVIII); assay: FVIII Antigen by ELISA (FVIII-AG ELISA kit) in patient plasma; assay type: in vivo, human
Protocol: as §1

[3] = test system: Factor IX (FIX); assay: FIX coefficient, Activity:Antigen ratio (dilution into FIX-deficient plasma / normal plasma standards); assay type: biochemical, human
Protocol: (§2) Blood samples were collected by venipuncture in 3.2% sodium citrate anticoagulant. Platelet poor plasma was separated by centrifugation per clinical protocols, snap frozen, and stored at −80 C until tested. FIX Antigen was measured by FIX-EIA paired antibody ELISA (Affinity Biologicals). FIX-deficient plasma (Affinity Biologicals) was used as a negative control and diluent. FIX Activity was performed via manual one-stage assay per the clinical laboratory protocols of the Bloodworks Northwest Hemostasis Reference Laboratory. FIX-deficient plasma (Siemens) was used as a diluent and negative control. The Benefix (Wyeth Pharmaceuticals) coefficient was ascertained by serial dilution of Benefix into FIX-deficient plasma (Affinity Biologicals), performance of both the FIX Antigen and Activity assays, and calculating the Activity:Antigen ratio.
The patient then received a dose of Alprolix followed by a blood draw 24 hours later. The Alprolix drug coefficient was not able to be experimentally determined due to limited drug availability. In lieu of this, we used normal plasma standards and experimentally determined the coefficient of normal human FIX to be 1.1. We then assumed the drug coefficient for Alprolix to be similar to naturally occurring FIX, and determined the patient's FIX level by: FIX Activity=(Base FIX Activity)+[(Measured FIX Antigen−Base FIX Antigen)×(Patient's FIX Coefficient)].

[4] = test system: Factor IX (FIX); assay: FIX Activity by manual one-stage assay in patient plasma; assay type: in vivo, human; settings: FIX Case #1, at presentation, 6 days after Benefix
Protocol: as §2

[5] = test system: Factor IX (FIX); assay: FIX Antigen by FIX-EIA paired antibody ELISA in patient plasma; assay type: in vivo, human; settings: FIX Case #1, patient with severe Hemophilia B, at presentation, 6 days after Benefix
Protocol: as §2

[6] = test system: Factor XI (FXI); assay: Factor XI Coefficient, serial dilution of normal reference plasma into FXI-deficient plasma; assay type: biochemical, human; settings: plasma pooled from healthy subjects
Protocol: Commercially-available normal and abnormal (FVII- and FXI-deficient) plasmas (Siemens) were obtained to be tested as experimental samples. Factor VII and Factor XI Coefficients were determined by serial dilution of normal reference plasma (Precision BioLogic) into FVII-deficient and FXI-deficient plasmas (Affinity Biologicals).
We tested two plasmas, one with normal levels of FXI, and one deficient in FXI (approximately 1/3 FXI activity). We experimentally determined using plasma pooled from healthy subjects that the coefficient of natural FXI is 0.82. The FXI Activity was then determined by: FXI Activity=[(Measured FXI Antigen)×(FXI Coefficient)].

**Q.** `NC(=O)CC[C@@H]1NC(=O)[C@H](Cc2ccccc2)NC(=O)[C@H](Cc2ccc(O)cc2)NC(=O)CCSSC[C@@H](C(=O)N2CCC[C@H]2C(=O)N[C@H](CCCN=C(N)N)C(=O)NCC(N)=O)NC(=O)[C@H](CC(N)=O)NC1=O` [Stimate] was tested. Which “FVIII Activity (Measured)” value [1] did it give?
**A.** 50.76%

**Q.** And the “FVIII Activity (Calculated)” value ([2]; FVIII Case #3, 45 min after Stimate, calculated with patient's FVIII coefficient 1.97, baseline 18.9%)?
**A.** 48.92%

**Q.** And the “Measured FVIII Antigen (FVIII:Ag) (after Stimate)” value ([2]; FVIII Case #3, patient with mild Hemophilia A, 45 min after Stimate, baseline 9.59 IU/dL)?
**A.** 24.83 IU/dL

**Q.** “Benefix: a different FIX replacement therapy (Wyeth Pharmaceuticals / Pfizer)” was tested. Which “drug coefficient (FIX Activity:Antigen ratio)” value ([3]; serial dilution of Benefix into FIX-deficient plasma) did it give?
**A.** 2.1

**Q.** And the “FIX Activity (Measured)” value [4]?
**A.** 4%

**Q.** What about the “Measured FIX Antigen (FIX:Ag)” value [5] of the same molecule?
**A.** 8.0 IU/dL

**Q.** Which “coefficient of natural FXI” value [6] does the source give for “natural FXI: FXI of plasma pooled from healthy subjects” here?
**A.** 0.82

**Q.** For “normal human FIX: naturally occurring FIX in normal plasma standards”, which “coefficient of normal human FIX” value ([3]; normal plasma standards) is on record?
**A.** 1.1
